Consider 14 compounds from PubChem BioAssay (NCI).

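Interpolation was linear, between the two tested concentrations surrounding the appropriate level; five concentrations were tested over 48 hours in 96-well plates. GI50 marks 50% less growth. TGI denotes the concentration required for complete inhibition of growth.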

Among the test systems are CCRF-CEM leukemia; COLO 205 colon; HCC-2998 colon; HCT-15 colon; MALME-3M melanoma; NCI/ADR-RES ovarian; OVCAR-5 ovarian; SW-620 colon; BT-549 breast; SR leukemia.
Holding throughout (test): NCI anticancer screen, dose series, 48 h

As for `CNC(=O)OCc1c(CO)nc(SC)n1C`, the TGI in the assay on CCRF-CEM leukemia, in the assay with COLO 205 colon, in the assay on HCC-2998 colon, with HCT-15 colon, in the assay with MALME-3M melanoma and with NCI/ADR-RES ovarian was above 100 µM in each case. Also, the TGI in the assay with OVCAR-5 ovarian and with SW-620 colon was above 100 µM each time.
With `CC1=NN(c2cccc(Cl)c2)C2(SCC(=O)N2c2nc3ccccc3s2)/C1=C\c1cccs1` (configuration not stated), the TGI is 37.1 µM with BT-549 breast; 37.1 µM in the assay on HCC-2998 colon; 54.8 µM with HCT-15 colon; 48.9 µM in the assay on NCI/ADR-RES ovarian; 56.7 µM with OVCAR-5 ovarian; 30.1 µM in the assay on SR leukemia. The same compound yielded a TGI with SW-620 colon above 100 µM.
Consider `Fc1ccc(C(OCCN2CCC3CCC(C2)N3C/C=C/c2ccco2)c2ccc(F)cc2)cc1` (configuration not stated), for which the TGI came out at 25.7 µM with BT-549 breast; 0.419 µM with CCRF-CEM leukemia; 13.3 µM with COLO 205 colon; 18.4 µM with HCC-2998 colon; 18.6 µM in the assay with HCT-15 colon; 21.7 µM with MALME-3M melanoma. In addition, the TGI in the assay with NCI/ADR-RES ovarian came out at 22.4 µM; in the assay on SR leukemia, 42.7 µM; with SW-620 colon it was 21.6 µM.
`COc1cccc2c1Cc1cc(-c3ccccc3)[n+](C)n1-2`: the TGI in the assay on BT-549 breast was 99.5 µM; with CCRF-CEM leukemia, 9.69 µM; in the assay on COLO 205 colon it was 7.46 µM; in the assay on HCC-2998 colon, above 100 µM; in the assay on HCT-15 colon, above 100 µM; with MALME-3M melanoma it was 25.6 µM. Also, the TGI with NCI/ADR-RES ovarian, in the assay with OVCAR-5 ovarian, in the assay with SR leukemia and with SW-620 colon was above 100 µM throughout.
In the case of `COc1cc2c(ccc3c4cc(OC)c(OC)cc4c[n+](C)c23)cc1O`, the TGI with CCRF-CEM leukemia was 34.6 µM; with COLO 205 colon, above 75 µM; in the assay on HCC-2998 colon, 75 µM; with HCT-15 colon, above 75 µM; in the assay with MALME-3M melanoma it was 66.4 µM; in the assay on NCI/ADR-RES ovarian, above 75 µM. The values for the TGI in the assay with OVCAR-5 ovarian and in the assay with SW-620 colon were above 34.5 µM and above 47.3 µM, respectively.
For the compound `Cc1nn(-c2ccccc2)c(C)c1/C=N/N=C1\SCC(=O)N1c1ccccc1`, the TGI in the assay with BT-549 breast is 43 µM; with CCRF-CEM leukemia, above 100 µM; in the assay on COLO 205 colon it was 39.9 µM; with HCC-2998 colon, 52.8 µM; in the assay with HCT-15 colon it was 63.6 µM; with MALME-3M melanoma it was 57.9 µM. Further, the TGI in the assay on NCI/ADR-RES ovarian is 54.4 µM; in the assay on OVCAR-5 ovarian, above 100 µM; in the assay on SR leukemia it was above 100 µM; with SW-620 colon, above 100 µM.
On to `CCC1CN(C(=O)c2ccccc2)C(Cc2c[nH]c3ccccc23)C(=O)C1CC(=O)OC` (configuration not stated), for which the TGI in the assay with BT-549 breast, in the assay with CCRF-CEM leukemia, with COLO 205 colon, in the assay on HCT-15 colon, in the assay on MALME-3M melanoma and in the assay with NCI/ADR-RES ovarian was above 100 µM throughout. Moreover, the TGI with OVCAR-5 ovarian, with SR leukemia and with SW-620 colon was above 100 µM each time.
As for `CCCNC(=O)CCC(C)C1CCC2C3C(C[C@H](OC(C)=O)[C@]12C)[C@@]1(C)CCC2(C[C@H]1C[C@H]3OC(C)=O)OOC1(CC[C@]3(C)C4C[C@H](OC(C)=O)[C@]5(C)C(C(C)CCC(=O)NCCC)CCC5C4[C@H](OC(C)=O)C[C@@H]3C1)OO2` (some centres not stated), the TGI in the assay with BT-549 breast, in the assay with CCRF-CEM leukemia, in the assay with COLO 205 colon, with HCC-2998 colon, with HCT-15 colon and in the assay on MALME-3M melanoma was above 100 µM each time. In addition, the TGI in the assay on NCI/ADR-RES ovarian, with OVCAR-5 ovarian, with SR leukemia and in the assay on SW-620 colon was above 100 µM in each case.
For the compound `Nc1cccc(/C=C/C(=O)N2CCN(CCOC(c3ccccc3)c3ccccc3)CC2)c1`, the TGI with BT-549 breast stood at 29.2 µM; in the assay with CCRF-CEM leukemia, 26.4 µM; in the assay on COLO 205 colon, 33.1 µM; in the assay on HCT-15 colon, 31.5 µM; with MALME-3M melanoma, 31.2 µM; with NCI/ADR-RES ovarian, 37.3 µM. Also, the figures for the TGI with OVCAR-5 ovarian, in the assay with SR leukemia and with SW-620 colon were 34.6 µM, 30.9 µM and 35 µM, respectively.
Consider `COc1cc2c(cc1O)CC[C@@H]1[C@@H]2CC[C@]2(C)[C@@H](OCCN(C)C)CC[C@@H]12`, for which the GI50 in the assay on COLO 205 colon is 0.521 µM; in the assay with HCC-2998 colon, 0.644 µM; with MALME-3M melanoma, 0.155 µM; with NCI/ADR-RES ovarian, 0.163 µM; with SR leukemia it was 0.148 µM; in the assay on SW-620 colon it was 0.163 µM. Also, the TGI in the assay on COLO 205 colon was found to be 1.17 µM; with HCC-2998 colon it was 1.5 µM; in the assay with MALME-3M melanoma, 0.753 µM; in the assay with NCI/ADR-RES ovarian, 0.861 µM; in the assay with SR leukemia, 0.894 µM; in the assay with SW-620 colon, 0.763 µM.
On to `O=C(OCN1C(=O)C2C3C=CC(C2C1=O)C1C2C(=O)N(COC(=O)C4CCCN4)C(=O)C2C31)C1CCCN1` (configuration not stated), for which the TGI with CCRF-CEM leukemia is 53.5 µM; in the assay with COLO 205 colon, above 100 µM; in the assay with HCC-2998 colon, above 100 µM; in the assay with HCT-15 colon, above 58.7 µM; with MALME-3M melanoma, above 100 µM; with OVCAR-5 ovarian, above 100 µM. The TGI in the assay with SR leukemia is 26.4 µM; in the assay on SW-620 colon, above 72.2 µM.
`CCOC(=O)C1=NN(c2ccc(C)cc2)C2=CC(C)=NN(C)C(=S)N21`: the TGI in the assay on BT-549 breast, in the assay with CCRF-CEM leukemia, in the assay with COLO 205 colon, with HCC-2998 colon, with HCT-15 colon and in the assay on NCI/ADR-RES ovarian was above 100 µM each time. In addition, the TGI with OVCAR-5 ovarian, in the assay with SR leukemia and in the assay on SW-620 colon was above 100 µM throughout.
As to `COc1ccc2c(c1)[nH]c1c(/C=C/c3ccccc3)nccc12`, the TGI is 29.9 µM in the assay on BT-549 breast; above 100 µM in the assay with CCRF-CEM leukemia; 19.9 µM in the assay on COLO 205 colon; 29.9 µM in the assay with HCC-2998 colon; 34.7 µM in the assay with HCT-15 colon; 31.5 µM in the assay on MALME-3M melanoma. Further, the TGI with NCI/ADR-RES ovarian is 37.9 µM; in the assay on OVCAR-5 ovarian, 30.5 µM; in the assay with SR leukemia, above 100 µM; in the assay on SW-620 colon it was 91.9 µM.
For `[N-]=[N+]=CC(=O)c1ccccc1C#CCCc1ccccc1`, the TGI with CCRF-CEM leukemia is 62.1 µM; in the assay on COLO 205 colon, 71.1 µM; with HCC-2998 colon, above 100 µM; in the assay with HCT-15 colon it was above 100 µM; in the assay with MALME-3M melanoma, 79.1 µM; in the assay on OVCAR-5 ovarian, above 100 µM. Besides, the TGI in the assay with SR leukemia and in the assay with SW-620 colon was above 100 µM in each case.
